According to US20220098196A1, “TRAPPING-FREE PARP INHIBITORS” (The Board of Regents of the University of Texas System, priority 2019, published 2022):

Legend:
Type in all cases: cell-based
PARP1 [1] = molecular target: T1, PARP1 (Homo sapiens, UniProt P09874); test: TMT quantitative proteomics in BT-549 cells, PARP1; conditions: iRucaparib 5 μM or VHL-Rucaparib 20 μM, 24 hours, 8,207 quantified proteins
Source text: Quantitative Mass Spectrometry.
Proteins were then extracted using methanol-chloroform precipitation.
The maximum intensity of each reporter ion was extracted.

PARP1 [2] = molecular target: T1, PARP1; test: PARP1 degradation in VHL-proficient (BT-549, PC-3) and VHL-deficient (786-O) cells (immunoblotting); parameters: host or cells: MDA-MB-468; BT-549; PC-3; 786-O; conditions: BT549 cells, iRucaparib 5 μM or VHL-Rucaparib 20 μM, 24 hours
Description: Immunoblotting. Cells were washed once with cold PBS and lysed with the SDS lysis buffer (1% SDS, 10 mM HEPES pH 7.0, 2 mM MgCl2, 500 U universal nuclease). Protein concentrations were determined by the BCA assay kit (Thermo Fisher Scientific). A total of 20 μg proteins (40 μg proteins for PAR immunoblotting experiments) were loaded onto the SDS-PAGE gel and were then transferred to a nitrocellulose membrane. Nitrocellulose membranes were then blocked with the TBST buffer containing 5% milk (Bio-Rad). Membranes were incubated with the primary antibodies overnight at 4° C. and the secondary antibodies for 1 hour at room temperature (RT). The blots were developed using enhanced chemiluminescence and were exposed on autoradiograph films.

PARP1 [3] = molecular target: T1, PARP1; test: PARP1 trapping in HeLa cells (subcellular fractionation, chromatin-bound fraction); parameters: host or cells: HeLa
Description: Subcellular Proteins Extraction. […] The cytosolic proteins were isolated by incubating the cells with the CEB buffer for 10 min at 4° C., and centrifuged at 500 g for 5 min. The membrane proteins were isolated by incubating the pellet from previous step with the MEB buffer for 10 min at 4° C., and centrifuged at 3000 g for 5 min. The soluble nuclear proteins were isolated by incubating the pellet from previous step with the NEB buffer for 30 min at 4° C., and centrifuged at 5000 g for 5 min. The chromatin bound proteins were isolated by incubating the pellet from previous step with the NEB buffer supplemented with nuclease for 15 min at RT and centrifuged at 16000 g for 5 min. Protein concentrations were determined by the BCA assay kit.

T1 sequence (P09874 whole entry): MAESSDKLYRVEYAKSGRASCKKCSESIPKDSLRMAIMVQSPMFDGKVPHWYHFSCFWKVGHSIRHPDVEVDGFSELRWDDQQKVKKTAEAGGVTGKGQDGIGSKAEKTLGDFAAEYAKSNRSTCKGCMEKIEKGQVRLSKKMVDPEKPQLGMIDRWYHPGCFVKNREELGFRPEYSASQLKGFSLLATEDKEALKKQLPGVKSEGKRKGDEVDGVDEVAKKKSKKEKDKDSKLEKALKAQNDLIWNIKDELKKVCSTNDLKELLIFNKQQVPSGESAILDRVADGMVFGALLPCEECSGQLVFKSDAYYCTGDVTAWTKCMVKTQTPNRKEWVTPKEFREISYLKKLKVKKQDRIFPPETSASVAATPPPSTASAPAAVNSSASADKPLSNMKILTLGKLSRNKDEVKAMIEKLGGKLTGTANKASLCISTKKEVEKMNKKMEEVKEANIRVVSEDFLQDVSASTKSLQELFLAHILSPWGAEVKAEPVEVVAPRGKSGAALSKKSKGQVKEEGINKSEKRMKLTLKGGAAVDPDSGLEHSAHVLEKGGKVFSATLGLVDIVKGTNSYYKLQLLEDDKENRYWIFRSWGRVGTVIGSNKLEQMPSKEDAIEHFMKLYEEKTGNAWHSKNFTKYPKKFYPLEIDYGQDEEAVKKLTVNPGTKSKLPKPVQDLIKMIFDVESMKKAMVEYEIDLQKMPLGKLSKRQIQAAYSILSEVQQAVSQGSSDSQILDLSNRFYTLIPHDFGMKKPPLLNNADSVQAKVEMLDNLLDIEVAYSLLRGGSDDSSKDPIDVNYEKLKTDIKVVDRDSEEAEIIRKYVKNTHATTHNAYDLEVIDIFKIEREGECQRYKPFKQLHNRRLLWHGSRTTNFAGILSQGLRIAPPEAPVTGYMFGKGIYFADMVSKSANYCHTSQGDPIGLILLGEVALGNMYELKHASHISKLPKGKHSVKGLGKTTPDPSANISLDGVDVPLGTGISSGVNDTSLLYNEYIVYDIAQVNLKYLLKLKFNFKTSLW

`CN(CCCCc1cn(CCOCCOCCOCCNc2cccc3c2C(=O)N(C2CCC(=O)NC2=O)C3=O)nn1)Cc1ccc(-c2[nH]c3cc(F)cc4c3c2CCNC4=O)cc1` (stereo not shown) [iRucaparib, Rucaparib-Triazole-PEG3-Pomalidomide] was tested, and the PARP1 downregulation (PARP1 [1]) was “one of the most significantly downregulated proteins”, the PARP1 degradation (PARP1 [2]) was “robust PARP1 degradation” and the “PARP1 trapping on chromatin (chromatin-bound fraction)” value (PARP1 [3]; 5 μM 24 hours, then MMS 0.01% 2 hours) was “undetectable in the chromatin-bound fraction”. The “potency in PARP1 trapping (rank order)” value (PARP1 [3]; 5 μM for all compounds, MMS 0.01%) was “even lower amount of trapped PARP1 compared to the least potent PARP1-trapper, Veliparib”.
